Data from patent US12486266B2, “Crystalline form of JAK inhibitor and application thereof” (Zhuhai United Laboratories CO., LTD., priority 2020, dated 2025).
Like-named read-outs stand apart in the source and are kept apart here. Marks after values point to notes of the source that are not given here.

Columns and labels:
[1] = tested on: collagen induced arthritis (CIA) in mice; conditions: for Average clinical score / Incidence rate: dosing from day 28
[2] = tested on: adjuvant induced arthritis (AIA) rat model
[3] = day 31, 0.3 mg/kg p.o. qd, listed as Dex.
[4] = day 13, 0.3 mg/kg p.o. qd from day 13
[5] = day 15, 0.3 mg/kg p.o. qd from day 13
[6] = day 17, 0.3 mg/kg p.o. qd from day 13
[7] = day 20, 0.3 mg/kg p.o. qd from day 13
[8] = day 22, 0.3 mg/kg p.o. qd from day 13
[9] = day 24, 0.3 mg/kg p.o. qd from day 13
[10] = day 27, 0.3 mg/kg p.o. qd from day 13
[11] = day 27, 0.3 mg/kg p.o. qd from day 13, listed as Dexamethasone acetate
[12] = right hind foot, day 27, 0.3 mg/kg p.o. qd
[13] = day 15, 30 mg/kg p.o. bid from day 13
[14] = day 17, 30 mg/kg p.o. bid from day 13
[15] = day 20, 30 mg/kg p.o. bid from day 13
[16] = day 22, 30 mg/kg p.o. bid from day 13
[17] = day 24, 30 mg/kg p.o. bid from day 13

C[C@@H]1C[C@H]2[C@@H]3CCC4=CC(=O)C=C[C@]4(C)[C@@]3(F)[C@@H](O)C[C@]2(C)[C@@]1(O)C(=O)CO [Dexamethasone]
Inhibition rate (clinical score AUC vs control group) ([1]; 0.3 mg/kg p.o. qd 14 days): 97.3% | Inhibition rate (clinical score AUC vs control group) ([1]; 0.3 mg/kg p.o. qd 14 days, listed as Dex.): 97.3% | AUC ± SEM (area under incidence/clinical score curve) ([1]; administration period, 0.3 mg/kg p.o. qd 14 days): 1.38 ± 0.81 | Average clinical score ([1]; day 21, 0.3 mg/kg p.o. qd): 0.00 ± 0.00 | Incidence rate ([1]; day 21, 0.3 mg/kg p.o. qd): 0% | Average clinical score ([1]; day 24, 0.3 mg/kg p.o. qd): 0.00 ± 0.00 | Incidence rate ([1]; day 24, 0.3 mg/kg p.o. qd): 0% | Average clinical score ([1]; day 27, 0.3 mg/kg p.o. qd): about 0.3 | Incidence rate ([1]; day 27, 0.3 mg/kg p.o. qd): 25% | Average clinical score ([1]; day 27, 0.3 mg/kg p.o. qd, listed as Dex.): 0.25 ± 0.16 | Average clinical score ([1]; day 28, 0.3 mg/kg p.o. qd): 0.50 ± 0.27 | Incidence rate ([1]; day 28, 0.3 mg/kg p.o. qd): 38% | Average clinical score ([1]; day 29, 0.3 mg/kg p.o. qd): 0.25 ± 0.16 | Incidence rate ([1]; day 29, 0.3 mg/kg p.o. qd): 25% | Average clinical score ([1]; day 31, 0.3 mg/kg p.o. qd): 0 | Incidence rate ([1]; day 31, 0.3 mg/kg p.o. qd): 0% | Average clinical score [1, 3]: 0.00 ± 0.00 | Incidence rate [1, 3]: 0% | Average clinical score ([1]; day 34, 0.3 mg/kg p.o. qd): 0.00 ± 0.00 | Incidence rate ([1]; day 34, 0.3 mg/kg p.o. qd): 0% | Average clinical score ([1]; day 36, 0.3 mg/kg p.o. qd): 0.00 ± 0.00 | Incidence rate ([1]; day 36, 0.3 mg/kg p.o. qd): 0% | Average clinical score ([1]; day 38, 0.3 mg/kg p.o. qd): 0.00 ± 0.00 | Incidence rate ([1]; day 38, 0.3 mg/kg p.o. qd): 0% | Average clinical score ([1]; day 41, 0.3 mg/kg p.o. qd): 0.00 ± 0.00 | Incidence rate ([1]; day 41, 0.3 mg/kg p.o. qd): 0% | Inhibition rate (total pathological score vs solvent control) ([2]; 0.3 mg/kg p.o. qd): 72.5% | Clinical score (mean) [2, 4]: 6.0 | Foot volume (mean) [2, 4]: 1.9 mL | Clinical score (mean) [2, 5]: 5.3* | Foot volume (mean) [2, 5]: 1.7**** mL | Clinical score (mean) [2, 6]: 4.1**** | Foot volume (mean) [2, 6]: 1.4**** mL | Clinical score (mean) [2, 7]: 3.4**** | Foot volume (mean) [2, 7]: 1.3**** mL | Clinical score (mean) [2, 8]: 3.1**** | Foot volume (mean) [2, 8]: 1.3**** mL | Clinical score (mean) [2, 9]: 3.1**** | Foot volume (mean) [2, 9]: 1.2**** mL | Clinical score (mean) [2, 10]: 2.7 | Foot volume (mean) [2, 10]: 1.21 mL | Clinical score (mean) [2, 11]: 2.9**** | Foot volume (mean) [2, 11]: 1.2**** mL | Pathological score: Bone resorption [2, 12]: 0.6 ± 0.2 | Pathological score: Cartilage injury [2, 12]: 0.6 ± 0.2 | Pathological score: Inflammatory cell infiltration [2, 12]: 1.8 ± 0.2 | Pathological score: Pannus formation [2, 12]: 1.4 ± 0.3 | Pathological score: Total score [2, 12]: 4.4±0.8 | Pathological score: Total score ([2]; right hind foot, day 27, 0.3 mg/kg p.o. qd, listed as Dexamethasone acetate): 4.4 ± 0.8

O=C(Nc1nc2cccc(-c3ccc(CN4CCS(=O)(=O)CC4)cc3)n2n1)C1CC1 [Filgotinib]
Incidence rate ([1]; day 21, 15 mg/kg p.o. bid): 0% | Incidence rate ([1]; day 24, 15 mg/kg p.o. bid): 0% | Incidence rate ([1]; day 27, 15 mg/kg p.o. bid): 25% | Incidence rate ([1]; day 29, 15 mg/kg p.o. bid): 50% | Incidence rate ([1]; day 31, 15 mg/kg p.o. bid): 75% | Incidence rate ([1]; day 34, 15 mg/kg p.o. bid): 88% | Incidence rate ([1]; day 36, 15 mg/kg p.o. bid): 88% | Incidence rate ([1]; day 38, 15 mg/kg p.o. bid): 88% | Incidence rate ([1]; day 41, 15 mg/kg p.o. bid): 100% | Clinical score (mean) [2, 13]: 6.6 | Foot volume (mean) [2, 13]: 2.2 mL | Clinical score (mean) [2, 14]: 6.3 | Foot volume (mean) [2, 14]: 2.0** mL | Clinical score (mean) [2, 15]: 5.8** | Foot volume (mean) [2, 15]: 1.9**** mL | Clinical score (mean) [2, 16]: 5.5*** | Foot volume (mean) [2, 16]: 2.0**** mL | Clinical score (mean) [2, 17]: 5.4**** | Foot volume (mean) [2, 17]: 2.0**** mL | Foot volume (mean) ([2]; day 27, 30 mg/kg p.o. bid from day 13): 1.9**** mL | Pathological score: Bone resorption ([2]; right hind foot, day 27, 30 mg/kg p.o. bid): 3.6 ± 0.2
